Results reported in patent US20260184715A1, “NOVEL PYRROLO[1,2-d][1,2,4] TRIAZINONE DERIVATIVES AS NEGATIVE ALLOSTERIC MODULATORS OF MGLU7 RECEPTORS” (Neurosterix Pharma Sarl., priority 2022, published 2026).
pIC50: −log10 of the molar value.

Molecular target: T1, human metabotropic glutamate 7 receptor (hmGlu7) (Homo sapiens, UniProt Q14831)
T1 construct: expressed in transfected cells
Assay: mGlu7 assay on HEK-expressing human mGlu7: fluorescent cell based-Ca2+ mobilization assay (FLIPR), inhibition of EC80 L-AP4 response
Settings: HEK-293 cells expressing hmGlu7, EC80 L-AP4; mean of at least three independent experiments in duplicate; read-out: Ca^2+ Flux (mean IC50)
Description: mGlu7 Assay on HEK-Expressing Human mGLU7
The cDNA encoding the human metabotropic glutamate 7 receptor (hmGlu7), (accession number NM_181874.2, NCBI Nucleotide database browser), was subcloned into an expression vector containing also the hygromycin resistance gene. In parallel, the cDNA encoding a G protein allowing redirection of the activation signal to intracellular calcium flux was subcloned into a different expression vector containing also the Puromycin resistance gene. Transfection of both these vectors into HEK293 cells with PolyFect reagent (Qiagen) according to supplier's protocol, and hygromycin and puromycin treatment allowed selection of antibiotic resistant cells which had integrated stably one or more copies of the plasmids. Positive cellular clones expressing hmGlu7 were identified in a functional assay measuring changes in calcium fluxes in response to glutamate and L-AP4 or known mGlu7 orthosteric antagonists.
HEK-293 cells expressing hmGlu7 were maintained in media containing DMEM, Fetal Bovine Serum (10%), GlutaMAX™ (2 mM), penicillin (100 units/mL), streptomycin (100 μg/mL), geneticin (100 μg/mL) and hygromycin-B (40 μg/mL) and puromycin (1 μg/mL) at 37° C. with 5% CO2 in a humidified atmosphere.
Human mGlu7 HEK-293 cells were plated out 24 hours prior to a fluorescent cell-based calcium mobilization assay using FLIPR^384 assay (Molecular Device, Sunnyvale, CA, USA) in black-walled, clear-bottomed, poly-L-ornithine-coated 384-well plates at a density of 25,000 cells/well in a glutamine/glutamate free DMEM medium containing fetal bovine serum (10%), penicillin (100 units/mL), streptomycin (100 μg/mL) and doxycyline (1 μg/ml) at 37° C. with 5% CO2 in a humidified atmosphere.
On the day of the assay, the medium was aspirated and the cells were loaded with a 3 μM solution of Fluo4-AM (LuBioScience, Lucerne, Switzerland) in 0.03% pluronic acid. After 1 hour at 37° C./5% CO2, the non incorporated dye was removed by washing cell plate with the assay buffer. All assays were performed in a pH 7.4 buffered-Solution containing 20 mM HEPES, 143 mM NaCl, 6 mM KCl, 1 mM MgSO4, 1 mM CaCl2, 0.125 mM sulfinpyrazone and 0.1% glucose.
After 10 s of basal fluorescence recording, various concentrations of the compounds of the invention were added to the cells. Changes in fluorescence levels were first monitored for 180 s in order to detect any agonist activity of the compounds. Then the cells were stimulated by an EC80 L-AP4 concentration for an additional 110 s in order to measure inhibiting activities of the compounds of the invention. EC80 L-AP4 concentration is the concentration giving 80% of the maximal glutamate response.
The concentration-response curves of L-AP4 or representative compounds of the present invention were generated using the Prism GraphPad software (Graph Pad Inc, San Diego, USA). The curves were fitted to a four-parameter logistic equation:
(Y=Bottom+(Top−Bottom)/(1+10^((Log IC50−X)*Hill Slope)
allowing determination of IC50 values.
The Table 3 below represents the mean IC50 obtained from at least three independent experiments of selected molecules performed in duplicate.

T1 sequence (Q14831 35-922 isoform Q14831-2 limits assumed): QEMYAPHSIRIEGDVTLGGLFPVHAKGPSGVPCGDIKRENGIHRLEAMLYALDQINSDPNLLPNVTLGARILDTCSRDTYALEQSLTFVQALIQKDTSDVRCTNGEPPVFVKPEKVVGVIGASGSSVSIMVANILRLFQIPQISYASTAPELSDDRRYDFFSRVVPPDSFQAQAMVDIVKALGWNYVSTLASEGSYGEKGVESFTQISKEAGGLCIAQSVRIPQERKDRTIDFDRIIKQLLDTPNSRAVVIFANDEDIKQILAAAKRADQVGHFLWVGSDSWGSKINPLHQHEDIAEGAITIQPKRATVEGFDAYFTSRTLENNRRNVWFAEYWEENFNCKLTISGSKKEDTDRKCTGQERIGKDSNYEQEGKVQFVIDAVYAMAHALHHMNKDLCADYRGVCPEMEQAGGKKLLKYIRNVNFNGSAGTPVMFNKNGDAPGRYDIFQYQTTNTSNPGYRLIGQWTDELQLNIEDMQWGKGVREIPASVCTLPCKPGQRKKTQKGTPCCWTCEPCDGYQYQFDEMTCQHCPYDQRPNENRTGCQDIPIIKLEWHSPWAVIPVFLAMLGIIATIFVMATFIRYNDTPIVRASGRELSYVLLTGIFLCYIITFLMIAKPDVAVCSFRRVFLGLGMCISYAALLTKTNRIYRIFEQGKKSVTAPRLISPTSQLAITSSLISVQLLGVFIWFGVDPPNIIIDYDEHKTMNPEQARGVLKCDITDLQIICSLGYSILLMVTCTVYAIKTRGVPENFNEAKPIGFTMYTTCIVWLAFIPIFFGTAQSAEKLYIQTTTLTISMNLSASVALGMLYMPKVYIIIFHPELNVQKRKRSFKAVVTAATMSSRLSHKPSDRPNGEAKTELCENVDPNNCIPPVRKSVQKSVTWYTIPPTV

pIC50 | Compound
> 7.00 | Cc1c(-c2cccc(N3CCC3)c2)c(C)n2c(=O)n(-c3ncccc3F)ncc12 [1-7]
5.00 to 6.00 | Cc1ccc(-c2c(C)c3cnn(-c4ncccn4)c(=O)n3c2C)c(C)c1 [1-79]
